Consider 2 molecules from patent publication US9192650B2, “Methods of inhibiting photoreceptor apoptosis by eliciting the Faim2 antiapoptotic pathway” (The Regents of the University of Michigan, priority 2011, dated 2015).

In one assay the test system is c-Jun. Description: Immunoblot of phosphorylation of JNK-target c-Jun (P-c-Jun) in Fas-AAb treated 661W cells. The note with it: inhibitor pretreatment 1 hour before Fas-AAb. It counts as cell-based. As for the experimental part:
(§1) The 661W cell line was maintained in Dulbecco's modified Eagle's medium containing 10% fetal bovine serum, 300 mg/L glutamine, 32 mg/L putrescine, 40 μL/L of β-mercaptoethanol, and 40 μg/L of both hydrocortisone 21-hemisuccinate and progesterone. The media also contained penicillin (90 units/mL) and streptomycin (0.09 mg/mL). Cells were grown at 37° C. in a humidified atmosphere of 5% CO2 and 95% air.
(§2) Retinas from experimental eyes with detachments and control eyes without detachments were dissected from the RPE-choroid, homogenized, and lysed in buffer containing 10 mM HEPES (pH 7.6), 0.5% IgEPal, 42 mM KCl, 1 mM phenylmethylsulfonyl fluoride (PMSF), 1 mM EDTA, 1 mM EGTA, 1 mM dithiothreitol (DTT), and 5 mM MgCl2 and 1 tablet of protease inhibitors per 10 mL buffer (Complete Mini; Roche Diagnostics GmbH, Madison, Wis.). 661W cells were lysed and homogenized in lysis buffer (as above). The homogenates were incubated on ice and centrifuged at 22,000 g at 4° C. for 60 minutes. The protein concentration of the supernatant was then determined (DC Protein Assay kit; Bio-Rad Laboratories, Hercules, Calif.). The protein samples were separated on SDS-polyacrylamide gels (Tris-HCl Ready Gels; Bio-Rad Laboratories, Hercules, Calif.). […] Protein bands were visualized with Ponceau S staining, and the lanes were assessed for equal loading by densitometry of entire lanes. […]
A general note: Immunoblotting shows a protein as a band on a membrane.

Another assay deals with caspase 8. Description: Luminescent caspase 8 activity assay in 661W cells. The assay is classed as cell-based. How it is done: as §1
Caspase 8 and Caspase 3 activity were measured by a commercially available luminescent tetrapeptide cleavage assay kits (Promega, Madison, Wis.). The 661W cells were seeded in 96-well plates (Nunc, Rochester, N.Y.) at 1000-1500 cells/well for 24 hours prior to treatment or siRNA transfection. Cells were treated with 500 ng/mL of Fas-agonistic Jo2 monoclonal antibody (BD Biosciences, Franklin Lakes, N.J.). In some experiments, cells were pretreated with MEK inhibitor U0126, JNK inhibitor SP600125, or DMSO. Caspase activity was measured at various time points by incubating the cells with the pro-luminescent substrate in 96-well plates following manufacturer's instructions. Controls included untreated cells and wells with no cells. Luminescence was measured in a plate reader luminometer (Turner Biosystems, Sunnyvale, Calif.). […]

The next assay deals with ERK. Description: Immunoblot of ERK phosphorylation (P-ERK) in Fas-AAb treated 661W cells. It counts as cell-based. Conditions: inhibitor pretreatment 1 hour before Fas-AAb. As for the experimental part:
as §1, §2

In another assay the test system is 661W cells. The assay can be described thus: Luminescent cell viability assay, Fas-mediated cell death of 661W cells. The assay is classed as cell-based. The note with it: 661W cells treated with Fas-AAb. How it is done:
as §1
Cell viability was measured by a commercially available luminescent assay kit (Promega, Madison, Wis.). The 661W cells were seeded in 96-well plates (Nunc, Rochester, N.Y.) at 1000-1500 cells/well for 24 hours prior to treatment. Cells were treated with 500 ng/mL of Fas-agonistic Jo2 monoclonal antibody (BD Biosciences, Franklin Lakes, N.J.). In some experiments, cells were pretreated with MEK inhibitor U0126, JNK inhibitor SP600125, or DMSO. Cell viability was measured at various time points by incubating the cells with the pro-luminescent substrate in 96-well plates following manufacturer's instructions. Controls included untreated cells and wells with no cells. Luminescence was measured in a plate reader luminometer (Turner Biosystems, Sunnyvale Calif.).

The subject of another assay is Faim2. Description: Immunoblot of Faim2 protein levels in 661W cells. The assay is classed as cell-based, mouse. Conditions: 661W cells treated with Fas-AAb. As for the experimental part: as §1, §2
Another assay has as its system caspase 3. The assay can be described thus: Luminescent caspase 3 activity assay in 661W cells. The assay is classed as cell-based. As for the experimental part:
as §1
Caspase 8 and Caspase 3 activity were measured by a commercially available luminescent tetrapeptide cleavage assay kits (Promega, Madison, Wis.). The 661W cells were seeded in 96-well plates (Nunc, Rochester, N.Y.) at 1000-1500 cells/well for 24 hours prior to treatment or siRNA transfection. Cells were treated with 500 ng/mL of Fas-agonistic Jo2 monoclonal antibody (BD Biosciences, Franklin Lakes, N.J.). In some experiments, cells were pretreated with MEK inhibitor U0126, JNK inhibitor SP600125, or DMSO. Caspase activity was measured at various time points by incubating the cells with the pro-luminescent substrate in 96-well plates following manufacturer's instructions. Controls included untreated cells and wells with no cells. Luminescence was measured in a plate reader luminometer (Turner Biosystems, Sunnyvale, Calif.).

[1] abbreviates: 661W cells treated with Fas-AAb.
Where [2] appears, read: 661W cells, 24 hours of Fas-AAb treatment.

SMILES strings stand for the structures. “Also recorded” adds a separate entry of the source.

For the molecule `Oc1c2ccccc2c2c3c(cccc13)N=N2` [SP600125], the “Concentration of maximal effect on Fas-AAb-dependent c-Jun phosphorylation” value in the assay with c-Jun is 10 to 20 µM.

As for `N#CC(=C(/N)Sc1ccccc1N)/C(C#N)=C(\N)Sc1ccccc1N` [U0126], the “Maximally-effective dose for increasing caspase 8 activity” value with caspase 8 (setting [1]) was found to be 10 µM. For the same molecule, the “Caspase 8 activity in presence of inhibitor” value in the assay on caspase 8 (setting [2]) is listed as “dose-dependent increase”. The “Concentration of maximal inhibition of Fas-AAb-induced ERK phosphorylation” value in the assay on ERK turned out to be 10 µM. The “Effect on Fas-AAb-induced phosphorylation of ERK” value in the assay on ERK (protein isolated 4 hours later) is “effective in preventing”. For the same molecule, the “Fas-AAb-mediated cell death in presence of inhibitor” value in the assay on 661W cells is listed as “increased Fas-AAb-mediated cell death”. In the assay on Faim2, the “Faim2 levels in Fas-AAb treated cells in presence of MAPK inhibitor” value was “dose-dependent inhibition; also recorded: reduced the levels of Faim2”. Also, the “Faim2 level by densitometry” value in the assay with Faim2 (10 μM dose of inhibitor) is given as “significant decrease”. The “Maximally-effective dose for increasing caspase 3 activity” value with caspase 3 (setting [1]) turned out to be 10 µM. Moreover, the “Caspase 3 activity in presence of inhibitor” value in the assay on caspase 3 (setting [2]) was “dose-dependent increase”.
